Laboratory results taken from paper PMC11770821, “Pharmacokinetics and pharmacodynamics of an innovative psychedelic N,N-dimethyltryptamine/harmine formulation in healthy participants: a randomized controlled trial” (International Journal of Neuropsychopharmacology, 2025).

Tests used:
healthy male volunteers [1] = assay: Undesired drug effects / adverse events questionnaire (y/n and VAS 0–100); assay type: in vivo, human
Procedure: (§1) The participants were monitored with regard to AEs throughout the experiment by the study physician, including questionnaire-based assessments (VAS, 0-100 or y/n) of physical and mental discomfort, breathing difficulties, racing heartbeat, chest or abdominal pains, unpleasant body sensations/muscle pain, headache, nausea, vomiting, and fainting at baseline (−105), 0, 30, 60, 120, 240, and 300 minutes after DMT/placebo administration. Vital signs (systolic/diastolic blood pressure [DBP], heart rate, body temperature [BT]) were assessed using a semiautomatic blood pressure and oral temperature recording device throughout the study at baseline (−45), 0, 30, 120, 150, 210, and 270 minutes after the first DMT/placebo administration.

healthy male volunteers [2] = conditions: in vivo
Procedure: as §1

[3] = 180 min after first intranasal DMT/placebo administration
[4] = 240 min after first intranasal DMT/placebo administration
[5] = 300 min after first intranasal DMT/placebo administration
[6] = −105 min (baseline) relative to first intranasal DMT/placebo administration

`COc1ccc2c(c1)[nH]c1c(C)nccc12` [Harmine, harmine] was tested, and the “Heart racing, mean intensity [0–100] (SD)” value (shortened to “Heart racing … (SD)”) (healthy male volunteers [1]; [3]) was 1 (0), the “Heart racing, number of participants reporting” value (from here on “Heart racing, number”) (healthy male volunteers [1]; [3]) was 1 and the “Muscle ache, mean intensity [0–100] (SD)” value (healthy male volunteers [1]; [3]) was 16 (14). The “Muscle ache, number of participants reporting” value (from here on “Muscle ache, number”) (healthy male volunteers [1]; [3]) was 4, the “Nausea, mean intensity [0–100] (SD)” value (healthy male volunteers [1]; [3]) was 1 (0) and the “Nausea, number of participants reporting” value (healthy male volunteers [1]; [3]) was 1. The “Psychological distress, mean intensity [0–100] (SD)” value (“Psychological distress … (SD)” for short) (healthy male volunteers [1]; [3]) was 9 (0), the “Psychological distress, number of participants reporting” value (shortened to “Psychological distress, number”) (healthy male volunteers [1]; [3]) was 1 and the “Somatic distress, mean intensity [0–100] (SD)” value (“Somatic distress … (SD)” for short) (healthy male volunteers [1]; [3]) was 13 (3). For the same molecule, the “Somatic distress, number of participants reporting” value (“Somatic distress, number” for short) (healthy male volunteers [1]; [3]) was 4, the “Stomach ache, mean intensity [0–100] (SD)” value (from here on “Stomach ache … (SD)”) (healthy male volunteers [1]; [3]) was 0 (0) and the “Stomach ache, number of participants reporting” value (“Stomach ache, number” for short) (healthy male volunteers [1]; [3]) was 0. The “Vomiting, mean intensity [0–100] (SD)” value (healthy male volunteers [1]; [3]) was 0 (0), the “Vomiting, number of participants reporting” value (from here on “Vomiting, number”) (healthy male volunteers [1]; [3]) was 0 and the “Breathing difficulty, mean intensity [0–100] (SD)” value (from here on “Breathing difficulty … (SD)”) (healthy male volunteers [1]; [4]) was 6 (0). The “Breathing difficulty, number of participants reporting” value (“Breathing difficulty, number” below) (healthy male volunteers [1]; [4]) was 1, the “Chest pain, mean intensity [0–100] (SD)” value (healthy male volunteers [1]; [4]) was 1 (0) and the “Chest pain, number of participants reporting” value (“Chest pain, number” below) (healthy male volunteers [1]; [4]) was 1. The “Fainting, mean intensity [0–100] (SD)” value (healthy male volunteers [1]; [4]) was 0 (0), the “Fainting, number of participants reporting” value (from here on “Fainting, number”) (healthy male volunteers [1]; [4]) was 0 and the “Head ache, mean intensity [0–100] (SD)” value (healthy male volunteers [1]; [4]) was 27 (0). The “Head ache, number of participants reporting” value (“Head ache, number” for short) (healthy male volunteers [1]; [4]) was 1, the “Heart racing … (SD)” value (healthy male volunteers [1]; [4]) was 3 (0) and the “Heart racing, number” value (healthy male volunteers [1]; [4]) was 1. For the same molecule, the “Muscle ache, mean intensity [0–100] (SD)” value (healthy male volunteers [1]; [4]) was 21 (5), the “Muscle ache, number” value (healthy male volunteers [1]; [4]) was 3 and the “Nausea, mean intensity [0–100] (SD)” value (healthy male volunteers [1]; [4]) was 2 (0). For the same molecule, the “Nausea, number of participants reporting” value (healthy male volunteers [1]; [4]) was 1, the “Psychological distress … (SD)” value (healthy male volunteers [1]; [4]) was 3 (1) and the “Psychological distress, number” value (healthy male volunteers [1]; [4]) was 2. For the same molecule, the “Somatic distress … (SD)” value (healthy male volunteers [1]; [4]) was 16 (12), the “Somatic distress, number” value (healthy male volunteers [1]; [4]) was 4 and the “Stomach ache … (SD)” value (healthy male volunteers [1]; [4]) was 32 (44). For the same molecule, the “Stomach ache, number” value (healthy male volunteers [1]; [4]) was 2, the “Vomiting, mean intensity [0–100] (SD)” value (healthy male volunteers [1]; [4]) was 0 (0) and the “Vomiting, number” value (healthy male volunteers [1]; [4]) was 0. The “Breathing difficulty … (SD)” value (healthy male volunteers [1]; [5]) was 3 (0), the “Breathing difficulty, number” value (healthy male volunteers [1]; [5]) was 1 and the “Chest pain, mean intensity [0–100] (SD)” value (healthy male volunteers [1]; [5]) was 0 (0). The “Chest pain, number” value (healthy male volunteers [1]; [5]) was 0, the “Fainting, mean intensity [0–100] (SD)” value (healthy male volunteers [1]; [5]) was 0 (0) and the “Fainting, number” value (healthy male volunteers [1]; [5]) was 0. The “Head ache, mean intensity [0–100] (SD)” value (healthy male volunteers [1]; [5]) was 0 (0), the “Head ache, number” value (healthy male volunteers [1]; [5]) was 0 and the “Heart racing … (SD)” value (healthy male volunteers [1]; [5]) was 49 (0). For the same molecule, the “Heart racing, number” value (healthy male volunteers [1]; [5]) was 1, the “Muscle ache, mean intensity [0–100] (SD)” value (healthy male volunteers [1]; [5]) was 9 (11) and the “Muscle ache, number” value (healthy male volunteers [1]; [5]) was 2. For the same molecule, the “Nausea, mean intensity [0–100] (SD)” value (healthy male volunteers [1]; [5]) was 2 (1), the “Nausea, number of participants reporting” value (healthy male volunteers [1]; [5]) was 2 and the “Psychological distress … (SD)” value (healthy male volunteers [1]; [5]) was 70 (0). The “Psychological distress, number” value (healthy male volunteers [1]; [5]) was 1, the “Somatic distress … (SD)” value (healthy male volunteers [1]; [5]) was 12 (5) and the “Somatic distress, number” value (healthy male volunteers [1]; [5]) was 3. The “Stomach ache … (SD)” value (healthy male volunteers [1]; [5]) was 2 (0), the “Stomach ache, number” value (healthy male volunteers [1]; [5]) was 1 and the “Vomiting, mean intensity [0–100] (SD)” value (healthy male volunteers [1]; [5]) was 0 (0). For the same molecule, the “Vomiting, number” value (healthy male volunteers [1]; [5]) was 0, the “overall safety and tolerability of drug-induced AEs” value (healthy male volunteers [1]; in vivo) was “mild and well tolerated” and the “Breathing difficulty … (SD)” value (healthy male volunteers [1]; [6]) was 12 (15). The “Breathing difficulty, number” value (healthy male volunteers [1]; [6]) was 2, the “Chest pain, mean intensity [0–100] (SD)” value (healthy male volunteers [1]; [6]) was 0 (0) and the “Chest pain, number” value (healthy male volunteers [1]; [6]) was 0. The “Fainting, mean intensity [0–100] (SD)” value (healthy male volunteers [1]; [6]) was 0 (0), the “Fainting, number” value (healthy male volunteers [1]; [6]) was 0 and the “Head ache, mean intensity [0–100] (SD)” value (healthy male volunteers [1]; [6]) was 8 (7). For the same molecule, the “Head ache, number” value (healthy male volunteers [1]; [6]) was 3, the “Heart racing … (SD)” value (healthy male volunteers [1]; [6]) was 9 (6) and the “Heart racing, number” value (healthy male volunteers [1]; [6]) was 3. For the same molecule, the “Muscle ache, mean intensity [0–100] (SD)” value (healthy male volunteers [1]; [6]) was 11 (9), the “Muscle ache, number” value (healthy male volunteers [1]; [6]) was 5 and the “Nausea, mean intensity [0–100] (SD)” value (healthy male volunteers [1]; [6]) was 6 (0). The “Nausea, number of participants reporting” value (healthy male volunteers [1]; [6]) was 1, the “Psychological distress … (SD)” value (healthy male volunteers [1]; [6]) was 13 (8) and the “Psychological distress, number” value (healthy male volunteers [1]; [6]) was 4. The “Somatic distress … (SD)” value (healthy male volunteers [1]; [6]) was 17 (12), the “Somatic distress, number” value (healthy male volunteers [1]; [6]) was 7 and the “Stomach ache … (SD)” value (healthy male volunteers [1]; [6]) was 12 (15). The “Stomach ache, number” value (healthy male volunteers [1]; [6]) was 2, the “Vomiting, mean intensity [0–100] (SD)” value (healthy male volunteers [1]; [6]) was 0 (0) and the “Vomiting, number” value (healthy male volunteers [1]; [6]) was 0. The “change of cardiovascular parameters” value (healthy male volunteers [2]) was “no relevant changes”.
